#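 Assay format: 96-well plates, 48-hour exposure. The concentration for 50% growth inhibition is given as GI50. The concentration for full growth arrest is given as TGI.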
# Key:
# Experiment in all cases: NCI tumour cell line growth inhibition, 48 h
# [1] = test system: SF-539 CNS
# [2] = test system: A549 NSCLC
# [3] = test system: RXF 393 renal
# [4] = test system: UACC-62 melanoma
# [5] = test system: DU-145 prostate
# [6] = test system: SR leukemia
# [7] = test system: BT-549 breast
# [8] = test system: SN12C renal
# [9] = test system: SK-MEL-2 melanoma
# [10] = test system: ACHN renal
# [11] = test system: UACC-257 melanoma
# [12] = test system: SNB-75 CNS
# [13] = test system: NCI-H226 lung
# [14] = test system: SNB-19 CNS
# [15] = test system: OVCAR-4 ovarian
# [16] = test system: OVCAR-5 ovarian
# [17] = test system: UO-31 renal
# [18] = test system: KM12 colon
# [19] = test system: OVCAR-8 ovarian
# [20] = test system: HCT-15 colon
# [21] = test system: EKVX NSCLC
# [22] = test system: MCF7 breast
# [23] = test system: MDA-MB-435
# [24] = test system: RPMI-8226 leukemia
# [25] = test system: SF-268 CNS
# [26] = test system: A498 renal
# [27] = test system: HOP-92 NSCLC
# [28] = test system: MDA-MB-231 breast
# [29] = test system: HL-60(TB) leukemia
# [30] = test system: SK-MEL-5 melanoma
# [31] = test system: NCI-H522 lung
# [32] = test system: MOLT-4 leukemia
# [33] = test system: NCI-H460 lung
# [34] = test system: K-562 leukemia
# [35] = test system: NCI/ADR-RES ovarian
# [36] = test system: OVCAR-3 ovarian
# [37] = test system: NCI-H23 lung
# [38] = test system: HT29 colon
# [39] = test system: SW-620 colon
# [40] = test system: MALME-3M melanoma
# [41] = test system: T-47D breast
# [42] = test system: SK-MEL-28 melanoma
# [43] = test system: PC-3 prostate
# [44] = test system: 786-0 renal
# [45] = test system: HS 578T breast
# [46] = test system: HOP-62 NSCLC
# [47] = test system: SF-295 CNS
# [48] = test system: CAKI-1 renal
# [49] = test system: TK-10 renal
# [50] = test system: COLO 205 colon
# [51] = test system: U251 CNS
# [52] = test system: HCC-2998 colon
# [53] = test system: M14 melanoma
# [54] = test system: SK-OV-3 ovarian
# [55] = test system: LOX IMVI melanoma
# [56] = test system: HCT-116 colon
# [57] = test system: CCRF-CEM leukemia
# [58] = test system: IGROV1 ovarian
smiles,measurement,setting,value
CCN(CC)CCCNCc1cc(-c2ccccc2)nc2cc(Cl)ccc12,GI50,[1],1.02 µM
same,TGI,[1],2.55 µM
same,GI50,[2],7.02 µM
same,TGI,[2],21.2 µM
same,GI50,[3],2.91 µM
same,TGI,[3],7.2 µM
same,GI50,[4],1.93 µM
same,TGI,[4],3.59 µM
same,GI50,[5],11.7 µM
same,TGI,[5],24.5 µM
same,GI50,[6],0.716 µM
same,TGI,[6],5.38 µM
same,GI50,[7],8.65 µM
same,TGI,[7],21.6 µM
same,GI50,[8],4.69 µM
same,TGI,[8],18.2 µM
same,GI50,[9],2.32 µM
same,TGI,[9],4.55 µM
same,GI50,[10],3.74 µM
same,TGI,[10],14.2 µM
same,GI50,[11],2.12 µM
same,TGI,[11],5.11 µM
same,GI50,[12],1.57 µM
same,TGI,[12],4.34 µM
same,GI50,[13],11.8 µM
same,TGI,[13],27.3 µM
same,GI50,[14],10.2 µM
same,TGI,[14],25.6 µM
same,GI50,[15],7.1 µM
same,TGI,[15],20.5 µM
same,GI50,[16],7.83 µM
same,TGI,[16],21.7 µM
same,GI50,[17],1.78 µM
same,TGI,[17],11.5 µM
same,GI50,[18],2.09 µM
same,TGI,[18],4.82 µM
same,GI50,[19],5.81 µM
same,TGI,[19],18.8 µM
same,GI50,[20],3.1 µM
same,TGI,[20],10.2 µM
same,GI50,[21],7.85 µM
same,TGI,[21],24.3 µM
same,GI50,[22],1.69 µM
same,TGI,[22],4.06 µM
same,GI50,[23],1.84 µM
same,TGI,[23],3.81 µM
same,GI50,[24],2.46 µM
same,TGI,[24],5.93 µM
same,GI50,[25],3.05 µM
same,TGI,[25],12.9 µM
same,GI50,[26],2.36 µM
same,TGI,[26],6.14 µM
same,GI50,[27],1.16 µM
same,TGI,[27],5.02 µM
same,GI50,[28],1.45 µM
same,TGI,[28],4.24 µM
same,GI50,[29],1.78 µM
same,TGI,[29],4.19 µM
same,GI50,[30],1.57 µM
same,TGI,[30],3.13 µM
same,GI50,[31],4.96 µM
same,TGI,[31],17.2 µM
same,GI50,[32],2.12 µM
same,TGI,[32],5.46 µM
same,GI50,[33],3.41 µM
same,TGI,[33],11.2 µM
same,GI50,[34],1.94 µM
same,TGI,[34],6.61 µM
same,GI50,[35],5 µM
same,TGI,[35],19.7 µM
same,GI50,[36],7.58 µM
same,TGI,[36],20.5 µM
same,GI50,[37],12.5 µM
same,TGI,[37],27.3 µM
same,GI50,[38],2.2 µM
same,TGI,[38],5.39 µM
same,GI50,[39],1.97 µM
same,TGI,[39],3.94 µM
same,GI50,[40],1.63 µM
same,TGI,[40],3.49 µM
same,GI50,[41],1.7 µM
same,TGI,[41],4.73 µM
same,GI50,[42],1.72 µM
same,TGI,[42],3.11 µM
same,GI50,[43],4.37 µM
same,TGI,[43],18.4 µM
same,GI50,[44],2.41 µM
same,TGI,[44],8.77 µM
same,GI50,[45],2.01 µM
same,TGI,[45],5.29 µM
same,GI50,[46],5.54 µM
same,TGI,[46],19.3 µM
same,GI50,[47],1.8 µM
same,TGI,[47],4.37 µM
same,GI50,[48],2.35 µM
same,TGI,[48],11.2 µM
same,GI50,[49],3.27 µM
same,TGI,[49],10.2 µM
same,GI50,[50],1.74 µM
same,TGI,[50],3.27 µM
same,GI50,[51],2.39 µM
same,TGI,[51],6.67 µM
same,GI50,[52],1.94 µM
same,TGI,[52],3.89 µM
same,GI50,[53],1.92 µM
same,TGI,[53],3.63 µM
same,GI50,[54],11.7 µM
same,TGI,[54],24.1 µM
same,GI50,[55],1.87 µM
same,TGI,[55],4.27 µM
same,GI50,[56],1.46 µM
same,TGI,[56],4.28 µM
CCN1CCN(c2cc(C(=O)Nc3cccc(Nc4ccc5c(OC)cccc5n4)c3)cc(C(F)(F)F)c2)CC1,GI50,[1],3.28 µM
same,TGI,[1],7.31 µM
same,GI50,[2],1.05 µM
same,TGI,[2],5.28 µM
same,GI50,[3],0.918 µM
same,TGI,[3],4.86 µM
same,GI50,[4],1.5 µM
same,TGI,[4],5.77 µM
same,GI50,[5],1.88 µM
same,TGI,[5],7.33 µM
same,GI50,[6],0.883 µM
same,TGI,[6],11.7 µM
same,GI50,[7],3.78 µM
same,TGI,[7],8.67 µM
same,GI50,[8],1.4 µM
same,TGI,[8],5.57 µM
same,GI50,[9],5.3 µM
same,TGI,[9],11 µM
same,GI50,[57],0.758 µM
same,TGI,[57],2.06 µM
same,GI50,[10],1.21 µM
same,TGI,[10],4.97 µM
same,GI50,[11],1.02 µM
same,TGI,[11],3.6 µM
same,GI50,[12],1.05 µM
same,TGI,[12],5.36 µM
same,GI50,[13],2.85 µM
same,TGI,[13],25.4 µM
same,GI50,[14],2.1 µM
same,TGI,[14],7.01 µM
same,GI50,[15],1.57 µM
same,TGI,[15],9.32 µM
same,GI50,[16],2.78 µM
same,TGI,[16],7.84 µM
same,GI50,[17],0.746 µM
same,TGI,[17],3.88 µM
same,GI50,[18],1.71 µM
same,TGI,[18],6.35 µM
same,GI50,[19],1.97 µM
same,TGI,[19],7.64 µM
same,GI50,[20],0.797 µM
same,TGI,[20],2.26 µM
same,GI50,[21],3.07 µM
same,TGI,[21],9.46 µM
same,GI50,[22],0.679 µM
same,TGI,[22],2.28 µM
same,GI50,[23],1.16 µM
same,TGI,[23],4.93 µM
same,GI50,[24],1.2 µM
same,TGI,[24],5.32 µM
same,GI50,[25],1.76 µM
same,TGI,[25],7.41 µM
same,GI50,[26],4.94 µM
same,TGI,[26],10.5 µM
same,GI50,[58],0.924 µM
same,TGI,[58],5.23 µM
same,GI50,[27],1.26 µM
same,TGI,[27],4.66 µM
same,GI50,[28],1.8 µM
same,TGI,[28],6.47 µM
same,GI50,[29],3.82 µM
same,TGI,[29],11.4 µM
same,GI50,[30],1.55 µM
same,TGI,[30],5.54 µM
same,GI50,[31],1.01 µM
same,TGI,[31],4 µM
same,GI50,[32],0.616 µM
same,TGI,[32],12.3 µM
same,GI50,[33],1.34 µM
same,TGI,[33],5.32 µM
same,GI50,[34],0.91 µM
same,TGI,[34],2.77 µM
same,GI50,[35],1.29 µM
same,TGI,[35],6.69 µM
same,GI50,[36],3.41 µM
same,TGI,[36],9.04 µM
same,GI50,[37],3.41 µM
same,TGI,[37],8.12 µM
same,GI50,[38],0.572 µM
same,TGI,[38],1.21 µM
same,GI50,[39],3.67 µM
same,TGI,[39],8.77 µM
same,GI50,[40],0.611 µM
same,TGI,[40],1.33 µM
same,GI50,[41],2.05 µM
same,TGI,[41],11.7 µM
same,GI50,[42],0.846 µM
same,TGI,[42],2.2 µM
same,GI50,[43],0.805 µM
same,TGI,[43],2.5 µM
same,GI50,[44],3.73 µM
same,TGI,[44],7.84 µM
same,GI50,[45],3.61 µM
same,TGI,[45],11.9 µM
same,GI50,[46],1.02 µM
same,TGI,[46],4.04 µM
same,GI50,[47],0.803 µM
same,TGI,[47],2.25 µM
same,GI50,[48],0.917 µM
same,TGI,[48],4.97 µM
same,GI50,[49],3.47 µM
same,TGI,[49],8.02 µM
same,GI50,[50],0.654 µM
same,TGI,[50],1.49 µM
same,GI50,[51],1.36 µM
same,TGI,[51],4.94 µM
same,GI50,[52],0.72 µM
same,TGI,[52],2.01 µM
same,GI50,[53],0.668 µM
same,TGI,[53],1.65 µM
same,GI50,[54],4.6 µM
same,TGI,[54],11 µM
same,GI50,[55],0.781 µM
same,TGI,[55],1.96 µM
same,GI50,[56],0.872 µM
same,TGI,[56],3.54 µM
